Test results: ChEMBL document CHEMBL3243999, “Novel anxiolytic agents derived from alpha-amino-alpha-phenyl-o-tolyl-4H-triazoles and -imidazoles” (J Med Chem, 1978)

How the values were obtained:
Mus musculus [1] = experiment: Anticonvulsant activity in ip dosed CF-1 albino mouse assessed as antagonism of pentylenetetrazole-induced clonic convulsions; assay type: functional
Mus musculus [2] = experiment: Sedative activity in ip dosed CF-1 albino mouse assessed as muscle relaxation by measuring depression of traction; assay type: functional
Mus musculus [3] = experiment: Muscle relaxing activity in ip dosed CF-1 albino mouse by chimney test; assay type: functional
Mus musculus [4] = experiment: Muscle relaxing activity in ip dosed CF-1 albino mouse assessed as depression of dish reflexes; assay type: functional
Mus musculus [5] = experiment: Anticonvulsant activity in ip dosed CF-1 albino mouse assessed as antagonism of nicotine-induced tonic extensor convulsions; assay type: functional
Mus musculus [6] = experiment: Anticonvulsant activity in ip dosed CF-1 albino mouse assessed as antagonism of nicotine-induced death; assay type: functional
Mus musculus [7] = experiment: Anticonvulsant activity in ip dosed CF-1 albino mouse assessed as antagonism of thiosemicarbazide-induced lethality; assay type: functional; settings: CF-1, ip
Mus musculus [8] = experiment: Anxiolytic activity in ip dosed CF-1 albino mouse assessed as antagonism of electric shock-induced effect; assay type: functional; settings: CF-1, ip
Rattus norvegicus = experiment: Anticonvulsant activity in po dosed Sprague-Dawley rat assessed as antagonism of pentylenetetrazole-induced clonic convulsions; assay type: functional
[9] = Retention time of the compound by GLC-electron capture detection analysis; assay type: physicochemical
Brain [10] = experiment: Drug metabolism in Sprague-Dawley rat brain assessed as triazolam metabolite formation at 20 mg/kg, ip after 0.5 hrs by GLC-electron capture detection analysis; assay type: ADME, organism-based; design: dose 20 mg/kg, route intraperitoneal; settings: in vivo
Brain [11] = experiment: Drug metabolism in Sprague-Dawley rat brain assessed as unchanged drug level at 20 mg/kg, ip after 20 mins by GC-MS analysis; assay type: ADME, organism-based; design: dose 20 mg/kg, route intraperitoneal; settings: in vivo
Mus musculus [12] = experiment: Drug metabolism in mouse silylated blood assessed as triazolobenzodiazepine metabolite formation at 30 mg/kg, ip after 30 mins by GC-MS analysis; assay type: ADME, organism-based; design: dose 30 mg/kg, route intraperitoneal; settings: in vivo, 0.5 h
Brain [13] = experiment: Drug metabolism in mouse brain assessed as un-identified metabolite formation at 20 mg/kg, ip after 0.5 hrs by GLC-electron capture detection analysis; assay type: ADME, organism-based; design: dose 20 mg/kg, route intraperitoneal; settings: in vivo
Brain [14] = experiment: Drug metabolism in mouse brain assessed as unchanged drug level at 20 mg/kg, ip after 20 mins by GC-MS analysis; assay type: ADME, organism-based; design: dose 20 mg/kg, route intraperitoneal; settings: in vivo
Mus musculus [15] = experiment: Anticonvulsant activity in po dosed CF-1 albino mouse assessed as antagonism of pentylenetetrazole-induced clonic convulsions; assay type: functional; settings: CF-1, po
Brain [16] = experiment: Retention time of the compound in mouse brain treated with (5-chloro-2-(3,5-dimethyl-4H-1,2,4-triazol-4-yl)phenyl)(2-chlorophenyl)methanamine at 20 mg/kg, ip after 0.5 hrs by GLC-electron capture detection analysis; assay type: ADME, organism-based; design: dose 20 mg/kg, route intraperitoneal; settings: in vivo
Brain [17] = experiment: Drug level in mouse brain treated with (5-chloro-2-(3,5-dimethyl-4H-1,2,4-triazol-4-yl)phenyl)(2-chlorophenyl)methanamine at 20 mg/kg, ip after 20 mins by GC-MS analysis; assay type: ADME, organism-based; design: dose 20 mg/kg, route intraperitoneal; settings: in vivo
Brain [18] = experiment: Drug level in Sprague-Dawley rat brain treated with (5-chloro-2-(3,5-dimethyl-4H-1,2,4-triazol-4-yl)phenyl)(2-chlorophenyl)methanamine at 20 mg/kg, ip after 20 mins by GC-MS analysis; assay type: ADME, organism-based; design: dose 20 mg/kg, route intraperitoneal; settings: in vivo
[19] = Mus musculus, CF-1, ip, read-out: ED50

SMILES	ED50 (Mus musculus [1]; [19]) [mg/kg]	ED50 (Mus musculus [2]; [19]) [mg/kg]	ED50 (Mus musculus [3]; [19]) [mg/kg]	ED50 (Mus musculus [4]; [19]) [mg/kg]	ED50 (Mus musculus [5]; [19]) [mg/kg]	ED50 (Mus musculus [6]; [19]) [mg/kg]	ED50 (Mus musculus [7]) [mg/kg]	ED50 (Mus musculus [8]) [mg/kg]	further results
Cc1nnc(C)n1-c1ccc(Cl)cc1C(N)c1ccccc1 (stereo unspecified)	16								
Cc1nnc(C)n1-c1ccc(Cl)cc1C(N)c1ccccc1Cl (stereo unspecified)	1.2	> 100	6.3	3.2	0.5	0.5	0.4	> 100	ED50 (Rattus norvegicus): > 50 mg/kg; Retention_time [9]: 9 min; Drug metabolism (Brain [10]): metabolite_notdetected; Drug metabolism (Brain [11]): 272 ng; Drug metabolism (Mus musculus [12]): metabolite_detected; Drug metabolism (Brain [13]): metabolite_detected; Drug metabolism (Brain [14]): 65 ng
CC(C)=NC(c1ccccc1Cl)c1cc(Cl)ccc1-n1c(C)nnc1C (stereo unspecified)	1.2	> 30	6	6.6	0.75	0.85	0.34		
Cc1nnc(CN(C)C)n1-c1ccc(Cl)cc1C(N)c1ccccc1Cl (stereo unspecified)	0.2	1.4	0.71	0.56	0.25	0.18	0.09	40	ED50 (Mus musculus [15]): 0.6 mg/kg; ED50 (Rattus norvegicus): 4.4 mg/kg
CN/N=C/c1nnc(C)n1-c1ccc(Cl)cc1C(N)c1ccccc1Cl (stereo unspecified)	1.2	20	7	0.4	1.3	1.4		> 100	
Cc1cn(-c2ccc(Cl)cc2C(N)c2ccccc2Cl)c(C)n1 (stereo unspecified)		> 100	> 100	20	3.6	3.6	1.8	> 100	
Br.Cc1nccn1-c1ccc(Cl)cc1C(N)c1ccccc1 (stereo unspecified)		32	18	16	9	9			
Cc1nnc(CN)n1-c1ccc(Cl)cc1Cc1ccccc1	12.5	25	18	14	7	6.2			
Cc1nnc(CN(C)C)n1-c1ccc(Cl)cc1C(=O)c1ccccc1Cl	0.28	3.2		0.25	0.14	0.14	0.02	50	
Cc1nnc(/C=N/N(C)C)n1-c1ccc(Cl)cc1C(N)c1ccccc1Cl (single isomer, unassigned)									ED50 (Mus musculus [2]): 50 mg/kg; ED50 (Mus musculus [3]): 16 mg/kg; ED50 (Mus musculus [4]): 7.1 mg/kg; ED50 (Mus musculus [5]): 4 mg/kg; ED50 (Mus musculus [6]): 4 mg/kg; ED50 (Mus musculus [1]): 5.6 mg/kg
Cc1nnc(C2CC2)n1-c1ccc(Cl)cc1C(N)c1ccccc1Cl (single isomer, unassigned; isomer 1)	40	> 50	40		2.3	2.3			ED50 (Mus musculus [4]): 4.5 mg/kg
Cc1nnc(CO)n1-c1ccc(Cl)cc1C(N)c1ccccc1Cl (single isomer, unassigned; isomer 1)	1.2	16	0.63		0.4	0.5			ED50 (Mus musculus [4]): 1.1 mg/kg; ED50 (Mus musculus [15]): 6.2 mg/kg; ED50 (Rattus norvegicus): > 50 mg/kg
Cc1nnc(/C=N/N(C)C)n1-c1ccc(Cl)cc1C(N)c1ccccc1Cl (single isomer, unassigned; isomer 1)	8.9	71	22	11.2	5.6	8		> 100	
Cc1nnc(CO)n1-c1ccc(Cl)cc1C(N)c1ccccc1Cl (single isomer, unassigned; isomer 2)									ED50 (Mus musculus [2]): 8 mg/kg; ED50 (Mus musculus [3]): 0.5 mg/kg; ED50 (Mus musculus [4]): 3.5 mg/kg; ED50 (Mus musculus [5]): 0.3 mg/kg; ED50 (Mus musculus [6]): 0.3 mg/kg; ED50 (Mus musculus [1]): 1 mg/kg
Cc1nnc(C2CC2)n1-c1ccc(Cl)cc1C(N)c1ccccc1Cl (stereo in doubt; 21b)									ED50 (Mus musculus [2]): >100 mg/kg; ED50 (Mus musculus [3]): 56 mg/kg; ED50 (Mus musculus [4]): 40 mg/kg; ED50 (Mus musculus [5]): 2.8 mg/kg; ED50 (Mus musculus [6]): 2 mg/kg; ED50 (Mus musculus [1]): >50 mg/kg
Cc1nnc2n1-c1ccc(Cl)cc1C(c1ccccc1)=NC2 [ALPRAZOLAM]									Retention_time [9]: 12 min
CN1C(=O)CN=C(c2ccccc2)c2cc(Cl)ccc21 [DIAZEPAM]	0.8	5		0.31	0.11	0.11	0.2	20	ED50 (Rattus norvegicus): 4.8 mg/kg
Cc1nnc2n1-c1ccc(Cl)cc1C(c1ccccc1Cl)=NC2 [TRIAZOLAM]	0.04	0.7	0.056	0.1	0.04	0.04	0.028	23	ED50 (Rattus norvegicus): 0.18 mg/kg; Retention_time [9]: 15 min; Retention_time (Brain [16]): 15 min; Drug metabolism (Brain [17]): 190 ng; Drug metabolism (Brain [18]): 4 ng
